Reference: ChEMBL document CHEMBL4312021, “Discovery of [1,2,4]-triazolo [1,5-a]pyrimidine-7(4H)-one derivatives as positive modulators of GABAA1 receptor with potent anticonvulsant activity and low toxicity” (Eur J Med Chem, 2020)
Values after ≈ are worked out from the molar mass of the structure shown. Active and inactive are the calls of the source. The calls are words filed in the database; no cut-off is given here.

Key:
[1] = system: Mus musculus; assay: Anticonvulsant activity in Kunming mouse assessed as reduction in ScPTZ-induced seizure at 100 mg/kg, ip administered before 30 mins of ScPTZ stimulation; assay type: functional, organism-based
[2] = system: Mus musculus; assay: Anticonvulsant activity in Kunming mouse assessed as reduction in ScPTZ-induced seizure at 300 mg/kg, ip administered before 30 mins of ScPTZ stimulation; assay type: functional, organism-based
[3] = system: Cortical neurone; assay: Antiepileptic actvity in C57BL/6 mouse Primary cortical neuron assessed as reduction in 4-AP-induced excitability measured for 8 mins by Fluo-8/AM staining based FLIPR assay; assay type: functional, cell-based; conditions: C57BL/6, Cortical neurone
[4] = system: Mus musculus; assay: Anticonvulsant activity in Kunming mouse assessed as reduction in MES-induced seizure at 30 to 300 mg/kg, ip measured after 30 mins; assay type: functional, organism-based
[5] = system: Mus musculus; assay: Anticonvulsant activity in Kunming mouse assessed as reduction in ScPTZ-induced seizure at 30 mg/kg, ip administered before 30 mins of ScPTZ stimulation; assay type: functional, organism-based
[6] = Solubility of compound in DMSO; assay type: physicochemical
[7] = Solubility of compound in water; assay type: physicochemical
[8] = system: Mus musculus; assay: Anticonvulsant activity in ip dosed CF-1 mouse assessed as reduction in ScPTZ-induced seizure administered before 30 mins of ScPTZ stimulation; assay type: functional; conditions: CF-1, ip, 0.5 h
[9] = Neurotoxicity in ip dosed Kunming mouse assessed as reduction in equilibrium measured after 30 mins by rotarod test; assay type: toxicity, organism-based; conditions: in vivo
[10] = system: Mus musculus; assay: Anticonvulsant activity in ip dosed Kunming mouse assessed as reduction in ScPTZ-induced seizure administered before 30 mins of ScPTZ stimulation; assay type: functional; conditions: 0.5 h
[11] = Protective index, ratio of TD50 for neurotoxicity in ip dosed Kunming mouse to ED50 for anticonvulsant activity in ip dosed Kunming mouse; assay type: toxicity, organism-based; conditions: in vivo, read-out: Ratio TD50/ED50

Row | Structure (SMILES) | Activity [1] | Activity [2] | IC50 [3] [µM] | Activity [4] | Activity [5] | solubility [6] [µg/mL] | solubility [7] [µg/mL] | ED50 [8] [mg/kg] | TD50 at 0.5 h [9] [mg/kg] | ED50 [10] [mg/kg] | selectivity ratio [11]
1 | CCCCCCc1nc2[nH]c(-c3ccc(Cl)cc3)cc(=O)n2n1 | Active | Active | 8.72 | inactive | Active | – | – | – | – | – | –
2 | O=c1cc(Cc2ccccc2)[nH]c2nc(Cc3ccc(F)cc3)nn12 | inactive | inactive | – | inactive | inactive | – | – | – | – | – | –
3 | CCCCCc1nc2[nH]c(-c3ccccc3)cc(=O)n2n1 | inactive | inactive | – | inactive | inactive | – | – | – | – | – | –
4 | Cc1ccc(Cc2cc(=O)n3nc(Cc4ccccc4)nc3[nH]2)cc1 | inactive | inactive | – | inactive | inactive | – | – | – | – | – | –
5 | Cc1ccc(-c2nc3[nH]c(-c4ccccc4)cc(=O)n3n2)cc1 | – | – | 3.21 | – | – | 3000 (≈ 9.92 mM) | 14.3 (≈ 0.0473 mM) | – | – | – | –
6 | CCCC(CCC)C(=O)O [VALPROIC ACID] | – | – | – | – | – | – | – | 149 | – | – | –
7 | NC(=O)N1c2ccccc2C=Cc2ccccc21 [CARBAMAZEPINE] | – | – | – | – | – | – | – | > 100 | – | – | –
8 | O=C1NC(=O)C(c2ccccc2)(c2ccccc2)N1 [PHENYTOIN] | – | – | – | – | – | – | – | > 300 | – | – | –
9 | O=c1cc(Cc2ccc(Cl)cc2)[nH]c2nc(Cc3ccccc3)nn12 | inactive | Active | – | inactive | inactive | – | – | – | – | – | –
10 | Cc1ccc(Cc2nc3[nH]c(-c4ccc(Cl)cc4)cc(=O)n3n2)cc1 | inactive | inactive | 5.44 | inactive | inactive | – | – | – | – | – | –
11 | CCCCCCc1nc2[nH]c(-c3ccccc3)cc(=O)n2n1 | inactive | inactive | – | inactive | inactive | – | – | – | – | – | –
12 | CCCCCc1nc2[nH]c(-c3ccc(Cl)cc3)cc(=O)n2n1 | Active | inactive | 8.25 | inactive | Active | – | – | – | – | – | –
13 | CCCCc1nc2[nH]c(-c3ccccc3)cc(=O)n2n1 | inactive | inactive | – | inactive | inactive | – | – | – | – | – | –
14 | O=c1cc(-c2ccccc2)[nH]c2nc(Cc3ccc(F)cc3)nn12 | Active | Active | 2.52 | inactive | Active | – | – | – | 261 | 71.6 | 3.67
15 | CCCCc1nc2[nH]c(-c3ccc(Cl)cc3)cc(=O)n2n1 | inactive | inactive | – | inactive | inactive | – | – | – | – | – | –
16 | O=c1cc(Cc2ccc(Cl)cc2)[nH]c2nc(Cc3ccc(F)cc3)nn12 | Active | Active | 3.65 | inactive | inactive | – | – | – | – | – | –

Row | Structure (SMILES) | Activity [1] | Activity [2] | IC50 [3] [µM] | Activity [4] | Activity [5] | solubility [6] [µg/mL] | solubility [7] [µg/mL] | ED50 [8] [mg/kg] | TD50 at 0.5 h [9] [mg/kg] | ED50 [10] [mg/kg] | selectivity ratio [11]
17 | O=c1cc(Cc2ccccc2)[nH]c2nc(Cc3ccccc3)nn12 | inactive | inactive | – | inactive | inactive | – | – | – | – | – | –
18 | CCCCCCCc1nc2[nH]c(-c3ccccc3)cc(=O)n2n1 | inactive | inactive | – | inactive | inactive | – | – | – | – | – | –
19 | Cc1ccc(-c2nc3[nH]c(Cc4ccc(F)cc4)cc(=O)n3n2)cc1 | inactive | inactive | – | inactive | inactive | – | – | – | – | – | –
20 | O=c1cc(-c2ccc(Cl)cc2)[nH]c2nc(Cc3ccccc3)nn12 | inactive | inactive | – | inactive | inactive | – | – | – | – | – | –
21 | Cc1ccc(Cc2nc3[nH]c(Cc4ccccc4)cc(=O)n3n2)cc1 | Active | Active | 2.47 | inactive | Active | – | – | – | – | – | –
22 | O=c1cc(-c2ccccc2)[nH]c2nc(Cc3ccccc3)nn12 | Active | Active | 1.31 | inactive | Active | – | – | – | – | – | –
23 | Cc1ccc(-c2nc3[nH]c(Cc4ccc(Cl)cc4)cc(=O)n3n2)cc1 | inactive | Active | – | inactive | inactive | – | – | – | – | – | –
24 | O=c1cc(-c2ccccc2)[nH]c2nc(Cc3ccc(Cl)cc3)nn12 | Active | Active | 1.83 | inactive | Active | – | – | – | 211 | 61.1 | 3.45
25 | CCCCCCCc1nc2[nH]c(-c3ccc(Cl)cc3)cc(=O)n2n1 | inactive | inactive | – | inactive | inactive | – | – | – | – | – | –
26 | Cc1ccc(Cc2nc3[nH]c(-c4ccccc4)cc(=O)n3n2)cc1 | Active | Active | 1.15 | inactive | Active | – | – | – | 281 | 65.8 | 4.26
27 | O=c1cc(Cc2ccccc2)[nH]c2nc(Cc3ccc(Cl)cc3)nn12 | Active | inactive | 4.28 | inactive | inactive | – | – | – | – | – | –
28 | O=c1cc(-c2ccc(Cl)cc2)[nH]c2nc(-c3ccccc3)nn12 | – | – | 2.35 | – | – | 3000 (≈ 9.29 mM) | 14.3 (≈ 0.0443 mM) | – | – | – | –
29 | Cc1ccc(Cc2cc(=O)n3nc(-c4ccccc4)nc3[nH]2)cc1 | inactive | inactive | – | inactive | inactive | – | – | – | – | – | –
30 | CCC1(c2ccccc2)C(=O)NC(=O)NC1=O [PHENOBARBITAL] | – | – | – | – | – | – | – | 13.2 | – | – | –
31 | Cc1ccc(Cc2cc(=O)n3nc(-c4ccc(C)cc4)nc3[nH]2)cc1 | inactive | inactive | – | inactive | inactive | – | – | – | – | – | –
